Read-outs that look alike come from different tables or passages of the source. Blank lines part the entries; values can stand above or below the molecule they belong to. Square brackets hold non-standard residues; d marks the D form. Ends that are not written are not given here. dPhe(4-Cl) = N[C@H](Cc1ccc(Cl)cc1)C(=O)O; Aib = CC(C)(N)C(=O)O
Experiments:
VIP receptors = experiment: Receptor binding and competition assay with 125I labeled peptide (SEQ ID NO:2) on human tumor cell lines; conditions: for Kd: 4-8° C.
Method: In the practice of these methods, the peptide was radioiodinated using the iodogen method. Briefly, 5 μg of the peptide in 10 μl of 50 mM PBS (pH 7.5), an appropriate amount of the radioisotope and 50 μg-100 μg iodogen were incubated at room temperature for 15-30 min with occasional mixing. Radioiodinated peptide was purified from unincorporated radioactive iodine by purification on a Sep Pak C18 cartridge, essentially following the same procedure as described for technetium labeling. Receptor binding and competition assays were performed at 4-8° C. Briefly, 50,000 cells were plated per well of a 24 well plate and allowed to adhere overnight. Before the assay, the cells were washed twice with ice cold binding buffer (25 mM HEPES, 10 mM MgCl2 and 1% BSA in RPMI 1640 medium). The cells were incubated for 2-3 hrs with an appropriate concentration (0.1-10 nM) of the ^125I labeled peptide (SEQ ID NO:2), in the presence and absence of the cold ligand, which is the uniodinated form of the same peptide (1 nM-10 μM). After incubation, the cells were washed thrice with the binding buffer to remove the unbound peptide. The cells were lysed and counts were measured in a Gamma counter. From a comparison of the extent of binding in the presence or absence of the unlabeled peptide (SEQ ID NO:2), the dissociation constant (Kd) (TABLE I) and maximal binding (Bmax) (TABLE II) were calculated for the peptide. […] These characteristics are similar to what has been previously reported for VIP receptors. The following tumor cell lines were assayed using the above described binding competition assay: HT29 (human colorectal adenocarcinoma); PTC (human primary tumor cells adenocarcinoma); KB (human squamous cell carcinoma); 4451 (human squamous cell carcinoma); L132 (human lung carcinoma); A549 (human lung carcinoma); HBL100 (human breast carcinoma) and PA1 (human ovarian carcinoma). Cells were grown in RPMI 1640 supplemented with 10% fetal calf serum, glutamine and antibiotics using standard cell culture techniques (see Animal Cell Culture: A Practical Approach, Freshney, ed, IRL press: Oxford, UK, 1992).

[1] = biological target: high affinity (nM range), low surface expression receptor on human tumor cells (VIP receptor) (human); experiment: maximal binding, 125I-SEQ ID NO:2 on KB cells
[2] = biological target: low affinity (µM range), high surface expression receptor on human tumor cells (VIP receptor) (human); experiment: maximal binding, 125I-SEQ ID NO:2 on KB cells
[3] = biological target: high affinity (nM range), low surface expression receptor on human tumor cells (VIP receptor) (human); experiment: maximal binding, 125I-SEQ ID NO:2 on PTC cells
[4] = biological target: low affinity (µM range), high surface expression receptor on human tumor cells (VIP receptor) (human); experiment: maximal binding, 125I-SEQ ID NO:2 on PTC cells
[5] = biological target: VIP receptors on human tumor cell lines (human); experiment: displacement of 125I labeled VIP on A549 cells
[6] = biological target: VIP receptors on human tumor cell lines (human); experiment: displacement of 125I labeled VIP on HT29 cells
[7] = biological target: high affinity (nM range), low surface expression receptor on human tumor cells (VIP receptor) (human); experiment: maximal binding, 125I-SEQ ID NO:2 on 4451 cells
[8] = biological target: low affinity (µM range), high surface expression receptor on human tumor cells (VIP receptor) (human); experiment: maximal binding, 125I-SEQ ID NO:2 on 4451 cells
[9] = biological target: high affinity (nM range), low surface expression receptor on human tumor cells (VIP receptor) (human); experiment: maximal binding, 125I-SEQ ID NO:2 on A549 cells
[10] = biological target: low affinity (µM range), high surface expression receptor on human tumor cells (VIP receptor) (human); experiment: maximal binding, 125I-SEQ ID NO:2 on A549 cells
[11] = biological target: high affinity (nM range), low surface expression receptor on human tumor cells (VIP receptor) (human); experiment: maximal binding, 125I-SEQ ID NO:2 on L132 cells
[12] = biological target: low affinity (µM range), high surface expression receptor on human tumor cells (VIP receptor) (human); experiment: maximal binding, 125I-SEQ ID NO:2 on L132 cells
[13] = biological target: VIP receptors on human tumor cell lines (human); experiment: displacement of 125I labeled VIP on HBL 100 cells
[14] = biological target: VIP receptors on human tumor cell lines (human); experiment: displacement of 125I labeled VIP (10-28) fragment on KB cells
[15] = biological target: VIP receptors on human tumor cell lines (human); experiment: displacement of 125I labeled VIP (10-28) fragment on PA1 cells
[16] = biological target: VIP receptors on human tumor cell lines (human); experiment: displacement of 125I labeled VIP (10-28) fragment on PTC cells
[17] = biological target: VIP receptors on human tumor cell lines (human); experiment: displacement of 125I labeled VIP (10-28) fragment on 4451 cells
[18] = biological target: low affinity (µM range), high surface expression receptor on human tumor cells (VIP receptor) (human); experiment: homologous radioligand competition, 125I-SEQ ID NO:2 on HT29 cells
[19] = biological target: high affinity (nM range), low surface expression receptor on human tumor cells (VIP receptor) (human); experiment: homologous radioligand competition, 125I-SEQ ID NO:2 on HBL 100 cells
[20] = biological target: low affinity (µM range), high surface expression receptor on human tumor cells (VIP receptor) (human); experiment: as above

Molecule: His-Ser-Asp-Aib-Val-4-Cl-D-Phe-Thr-Asp-Asn-Tyr-Thr-Arg-Leu-Arg-Lys-Gln-Leu-Ala-Val-Lys-Lys-Tyr-Leu-Asn-Ser-Ile-Leu-Asn-NH2 (HSD[Aib]V[dPhe(4-Cl)]TDNYTRLRKQLAVKKYLNSILN-NH2; N-terminus assumed; SMILES CC[C@H](C)[C@H](NC(=O)[C@H](CO)NC(=O)[C@H](CC(N)=O)NC(=O)[C@H](CC(C)C)NC(=O)[C@H](Cc1ccc(O)cc1)NC(=O)[C@H](CCCCN)NC(=O)[C@H](CCCCN)NC(=O)[C@@H](NC(=O)[C@H](C)NC(=O)[C@H](CC(C)C)NC(=O)[C@H](CCC(N)=O)NC(=O)[C@H](CCCCN)NC(=O)[C@H](CCCNC(=N)N)NC(=O)[C@H](CC(C)C)NC(=O)[C@H](CCCNC(=N)N)NC(=O)[C@@H](NC(=O)[C@H](Cc1ccc(O)cc1)NC(=O)[C@H](CC(N)=O)NC(=O)[C@H](CC(=O)O)NC(=O)[C@@H](NC(=O)[C@@H](Cc1ccc(Cl)cc1)NC(=O)[C@@H](NC(=O)C(C)(C)NC(=O)[C@H](CC(=O)O)NC(=O)[C@H](CO)NC(=O)[C@@H](N)Cc1c[nH]cn1)C(C)C)[C@@H](C)O)[C@@H](C)O)C(C)C)C(=O)N[C@@H](CC(C)C)C(=O)N[C@@H](CC(N)=O)C(N)=O) [SEQ ID NO:2, VIP receptor antagonist, preferred peptide (Xxx = Aib)]
Bmax1 (maximal binding) (VIP receptors; 4451 cells, high affinity receptor): 579 pM
Kd (VIP receptors; 4451 cells, high affinity receptor, read-out: Kd1): 4.48 nM
Bmax2 (maximal binding) (VIP receptors; 4451 cells, low affinity receptor): 51 nM
Kd (VIP receptors; 4451 cells, low affinity receptor, read-out: Kd2): 1910 nM
Bmax1 (maximal binding) (VIP receptors; A549 cells, high affinity receptor): 540 pM
Kd (VIP receptors; A549 cells, high affinity receptor, read-out: Kd1): 2.09 nM
Bmax2 (maximal binding) (VIP receptors; A549 cells, low affinity receptor): 48.3 nM
Kd (VIP receptors; A549 cells, low affinity receptor, read-out: Kd2): 1530 nM
Bmax1 (maximal binding) (VIP receptors; HBL 100 cells, high affinity receptor): 697 pM
Kd (VIP receptors; HBL 100 cells, high affinity receptor, read-out: Kd1): 2.13 nM
Bmax2 (maximal binding) (VIP receptors; HBL 100 cells, low affinity receptor): 69.1 nM
Kd (VIP receptors; HBL 100 cells, low affinity receptor, read-out: Kd2): 1600 nM
Bmax1 (maximal binding) (VIP receptors; HT29 cells, high affinity receptor): 367 pM
Kd (VIP receptors; HT29 cells, high affinity receptor, read-out: Kd1): 3.8 nM
Bmax2 (maximal binding) (VIP receptors; HT29 cells, low affinity receptor): 67.2 nM
Kd (VIP receptors; HT29 cells, low affinity receptor, read-out: Kd2): 1370 nM
Bmax1 (maximal binding) (VIP receptors; KB cells, high affinity receptor): 602 pM
Kd (VIP receptors; KB cells, high affinity receptor, read-out: Kd1): 4.2 nM
Bmax2 (maximal binding) (VIP receptors; KB cells, low affinity receptor): 42.9 nM
Kd (VIP receptors; KB cells, low affinity receptor, read-out: Kd2): 1840 nM
Bmax1 (maximal binding) (VIP receptors; L132 cells, high affinity receptor): 306 pM
Kd (VIP receptors; L132 cells, high affinity receptor, read-out: Kd1): 2.6 nM
Bmax2 (maximal binding) (VIP receptors; L132 cells, low affinity receptor): 45.8 nM
Kd (VIP receptors; L132 cells, low affinity receptor, read-out: Kd2): 1030 nM
Kd (VIP receptors; PA1 cells, high affinity receptor, read-out: Kd1): 5.6 nM
Kd (VIP receptors; PA1 cells, low affinity receptor, read-out: Kd2): 1890 nM
Bmax1 (maximal binding) (VIP receptors; PAI cells, high affinity receptor): 529 pM
Bmax2 (maximal binding) (VIP receptors; PAI cells, low affinity receptor): 47.7 nM
Bmax1 (maximal binding) (VIP receptors; PTC cells, high affinity receptor): 830 pM
Kd (VIP receptors; PTC cells, high affinity receptor, read-out: Kd1): 1.77 nM
Bmax2 (maximal binding) (VIP receptors; PTC cells, low affinity receptor): 96.6 nM
Kd (VIP receptors; PTC cells, low affinity receptor, read-out: Kd2): 1180 nM
kinds of receptors bound on the cell surface (VIP receptors; one high affinity (nM range), low expression, one low affinity, high expression): bound to two kinds of receptors on the cell surface

Bmax1 [1]: 602 pM
Bmax2 [2]: 42.9 nM
Bmax1 [3]: 830 pM
Bmax2 [4]: 96.6 nM
IC50 [5]: 4.3 nM
IC50 [6]: 2.78 nM
Bmax1 [7]: 579 pM
Bmax2 [8]: 51 nM
Bmax1 [9]: 540 pM
Bmax2 [10]: 48.3 nM
Bmax1 [11]: 306 pM
Bmax2 [12]: 45.8 nM
IC50 [13]: 5.41 nM
IC50 [14]: 0.35 nM
IC50 [15]: 0.31 nM
IC50 [16]: 0.132 nM
IC50 [17]: 0.383 nM
Kd [18]: 1370 nM
Kd [19]: 2.13 nM
Kd [20]: 1600 nM
B1: VIP analog His-Ser-Asp-Aib-Val-4-Cl-D-Phe-Thr-Asp-Asn-Tyr-Thr-Arg-Leu-Arg-Lys-Gln-Leu-Ala-Val-Lys-Lys-Tyr-Leu-Asn-Ser-Ile-Leu-Asn-NH2 (SEQ ID NO: 2) (peptide)
peptide: HSD[Aib]V[dPhe(4-Cl)]TDNYTRLRKQLAVKKYLNSILN-NH2
modifications: also: 125I-labelled form (iodogen) used as tracer
